Experimental data as given in ChEMBL document CHEMBL1201862, “PubChem BioAssay data set” (2004).
Calls of active or inactive are those of the source.

What was measured:
[1] = NIH3T3 cell viability loss – ATP luminescence, mouse fibroblasts, counter-screen, dose response (AID 2010); type: functional, cell-based;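 also: cells exposed to compound for about 90 hours before reading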
[2] = molecular target: T1, Apoptotic protease-activating factor 1 (Homo sapiens, UniProt O14727); type: functional
T1 sequence (O14727 whole entry): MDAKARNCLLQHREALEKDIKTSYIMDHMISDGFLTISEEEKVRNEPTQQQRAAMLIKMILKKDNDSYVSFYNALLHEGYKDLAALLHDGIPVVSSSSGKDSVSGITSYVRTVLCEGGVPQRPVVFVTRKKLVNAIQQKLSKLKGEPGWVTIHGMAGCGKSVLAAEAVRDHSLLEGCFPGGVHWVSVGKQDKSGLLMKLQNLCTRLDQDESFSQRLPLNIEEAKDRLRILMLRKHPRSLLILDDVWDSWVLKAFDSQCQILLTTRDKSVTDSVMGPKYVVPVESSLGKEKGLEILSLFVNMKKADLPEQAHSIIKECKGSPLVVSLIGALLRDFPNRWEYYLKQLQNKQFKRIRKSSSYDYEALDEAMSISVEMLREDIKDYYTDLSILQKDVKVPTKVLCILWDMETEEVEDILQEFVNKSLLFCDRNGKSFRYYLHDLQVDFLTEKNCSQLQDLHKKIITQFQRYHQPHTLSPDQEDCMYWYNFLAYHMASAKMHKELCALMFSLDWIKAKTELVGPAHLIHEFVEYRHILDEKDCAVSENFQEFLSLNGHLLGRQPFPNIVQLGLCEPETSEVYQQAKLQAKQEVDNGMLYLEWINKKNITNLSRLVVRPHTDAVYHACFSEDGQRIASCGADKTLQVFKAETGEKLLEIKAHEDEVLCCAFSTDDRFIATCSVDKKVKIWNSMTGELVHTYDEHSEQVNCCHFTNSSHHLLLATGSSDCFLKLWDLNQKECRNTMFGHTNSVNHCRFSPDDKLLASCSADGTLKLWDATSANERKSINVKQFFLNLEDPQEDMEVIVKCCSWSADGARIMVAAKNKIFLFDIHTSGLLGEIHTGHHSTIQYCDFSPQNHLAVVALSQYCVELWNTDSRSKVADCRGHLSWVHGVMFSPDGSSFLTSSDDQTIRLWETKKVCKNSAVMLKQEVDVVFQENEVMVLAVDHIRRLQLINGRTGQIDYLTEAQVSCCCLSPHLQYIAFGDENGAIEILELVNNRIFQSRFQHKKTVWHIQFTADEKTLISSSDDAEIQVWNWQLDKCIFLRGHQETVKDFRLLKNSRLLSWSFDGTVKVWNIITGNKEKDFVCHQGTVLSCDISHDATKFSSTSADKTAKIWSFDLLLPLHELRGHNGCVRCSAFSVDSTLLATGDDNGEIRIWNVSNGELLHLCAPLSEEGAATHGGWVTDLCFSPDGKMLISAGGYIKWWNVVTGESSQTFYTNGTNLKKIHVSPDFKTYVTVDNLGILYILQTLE

[3] = cells; type: functional
[4] = molecular target: Lysine-specific demethylase 4C (Homo sapiens, UniProt Q9H3R0); experiment: inhibition of JMJD2C H3K9me3 demethylation – biochemical, DELFIA europium, cherry-picked samples, dose response (AID 488835); type: functional
Lysine-specific demethylase 4C, sequence (Q9H3R0 whole entry): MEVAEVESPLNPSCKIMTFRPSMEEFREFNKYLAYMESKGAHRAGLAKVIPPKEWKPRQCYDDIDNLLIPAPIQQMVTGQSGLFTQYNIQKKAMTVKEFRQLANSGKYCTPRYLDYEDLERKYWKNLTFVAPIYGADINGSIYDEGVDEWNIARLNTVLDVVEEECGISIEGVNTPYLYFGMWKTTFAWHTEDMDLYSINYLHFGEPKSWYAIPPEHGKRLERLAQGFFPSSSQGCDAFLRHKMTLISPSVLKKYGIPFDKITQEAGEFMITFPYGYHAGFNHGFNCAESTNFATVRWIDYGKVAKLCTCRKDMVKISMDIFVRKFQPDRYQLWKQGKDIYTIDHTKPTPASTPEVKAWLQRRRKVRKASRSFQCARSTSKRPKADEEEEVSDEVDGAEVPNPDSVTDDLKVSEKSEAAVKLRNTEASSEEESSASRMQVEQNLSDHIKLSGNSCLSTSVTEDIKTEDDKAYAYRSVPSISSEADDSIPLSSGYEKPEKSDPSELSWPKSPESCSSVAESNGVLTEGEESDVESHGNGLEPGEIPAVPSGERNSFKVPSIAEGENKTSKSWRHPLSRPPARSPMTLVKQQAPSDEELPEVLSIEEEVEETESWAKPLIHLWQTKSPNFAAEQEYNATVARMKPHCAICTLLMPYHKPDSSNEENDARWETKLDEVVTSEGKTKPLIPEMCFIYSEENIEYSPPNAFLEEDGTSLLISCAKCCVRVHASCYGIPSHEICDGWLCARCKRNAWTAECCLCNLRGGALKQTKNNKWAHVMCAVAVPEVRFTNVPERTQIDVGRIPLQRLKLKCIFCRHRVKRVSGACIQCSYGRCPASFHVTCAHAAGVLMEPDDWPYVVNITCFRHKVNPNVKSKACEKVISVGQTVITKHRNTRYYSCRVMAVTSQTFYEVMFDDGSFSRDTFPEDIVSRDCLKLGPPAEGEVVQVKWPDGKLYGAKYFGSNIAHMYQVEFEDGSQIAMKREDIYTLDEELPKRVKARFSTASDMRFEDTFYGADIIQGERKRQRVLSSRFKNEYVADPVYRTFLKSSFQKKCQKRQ

Structure (SMILES): Clc1ccc(/N=c2\ssnc2Cl)nc1
- EC50 [1]: > 60 µM (not active)
- IC50 [2]: 14.3 µM (active)
- IC50 [3]: 32.9 µM (active)
- AC50 [4]: 669 nM (active)
